Molecules are shown by their SMILES. “And” between values parts separate entries of the source, which are not always exact repeats. Identical values can stand only once.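 Assay format: 96-well plates, 48-hour exposure. GI50 = concentration required for 50% inhibition of growth. TGI denotes the concentration required for complete inhibition of growth.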 Where a SMILES comes first, the peptide text is derived from it. The star is where a group is joined. Trt = c1ccc(C(c2ccccc2)(c2ccccc2)*)cc1; Cbz = O=C(OCc1ccccc1)*

Test systems include COLO 205 colon; HOP-92 NSCLC; M14 melanoma; MCF7 breast; MDA-MB-231 breast; PC-3 prostate; SK-OV-3 ovarian; SN12C renal; SNB-75 CNS; U251 CNS.
Holding throughout (assay): NCI anticancer screen, dose series, 48 h

`COc1ccc2nc3cc(Cl)ccc3c(NCCCNCCO)c2c1`: the GI50 was 241 nM in the assay on COLO 205 colon; 1200 nM with HOP-92 NSCLC; 562 nM in the assay with M14 melanoma; 355 nM in the assay with MCF7 breast; 470 nM in the assay with MDA-MB-231 breast; 544 nM in the assay with PC-3 prostate. The GI50 was 635 nM in the assay with SK-OV-3 ovarian, 371 nM in the assay with SN12C renal, 744 nM in the assay with SNB-75 CNS and 455 nM with U251 CNS. Further, the TGI in the assay with COLO 205 colon was found to be 1.14 µM; with HOP-92 NSCLC, 3.45 µM; in the assay on M14 melanoma it was 2.16 µM; in the assay on MCF7 breast it was 2.06 µM; in the assay with MDA-MB-231 breast, 2.71 µM; with PC-3 prostate, 2.54 µM. Moreover, the TGI was 3.33 µM in the assay with SK-OV-3 ovarian, 2.48 µM in the assay on SN12C renal, 2.26 µM in the assay on SNB-75 CNS and 2.12 µM in the assay on U251 CNS.
Consider `C[C@@]1([C@H](OC(=O)c2ccccc2)C(N)=O)CO1`, for which the GI50 was 22500 nM in the assay on COLO 205 colon; 14800 nM with HOP-92 NSCLC; 22100 nM with M14 melanoma; 32000 nM with MCF7 breast; 14900 nM in the assay with MDA-MB-231 breast; 16600 nM with PC-3 prostate. The GI50 is 28300 nM in the assay on SK-OV-3 ovarian, 13700 nM in the assay with SN12C renal, 22800 nM in the assay with SNB-75 CNS and 17100 nM in the assay with U251 CNS. The TGI in the assay on COLO 205 colon was 43 µM; in the assay with HOP-92 NSCLC, 42.1 µM; with M14 melanoma, 53.9 µM; in the assay with MCF7 breast, > 100 µM; with MDA-MB-231 breast it was 41.8 µM; with PC-3 prostate, 52.1 µM. Further, the TGI with SK-OV-3 ovarian is 66 µM; in the assay with SN12C renal, 33.9 µM; in the assay on SNB-75 CNS it was 50.6 µM; with U251 CNS, 37.5 µM.
Take `COc1cc2c(c(OC)c1OC)-c1ccc(NN(C(=O)c3ccccc3)C(=O)c3ccccc3)c(=O)cc1[C@@H](NC(C)=O)CC2` (tested in a mixture with another compound): the GI50 in the assay on COLO 205 colon was 3020 nM; in the assay on HOP-92 NSCLC, 3840 nM; with M14 melanoma it was 2360 nM; in the assay with MCF7 breast, 3840 nM; with MDA-MB-231 breast, 3390 nM; in the assay with PC-3 prostate it was 4690 nM. In addition, the GI50 with SK-OV-3 ovarian was 2650 nM; with SN12C renal it was 5380 nM; in the assay with SNB-75 CNS, 5080 nM; with U251 CNS, 3770 nM. Also, the TGI in the assay with COLO 205 colon was 12.2 µM; in the assay with HOP-92 NSCLC, > 100 µM; with M14 melanoma, 6.45 µM; in the assay with MCF7 breast it was > 100 µM; in the assay on MDA-MB-231 breast, > 100 µM; in the assay on PC-3 prostate it was > 100 µM. The TGI in the assay with SK-OV-3 ovarian was 8.77 µM; with SN12C renal, > 100 µM; in the assay with SNB-75 CNS, > 100 µM; with U251 CNS it was 21.3 µM.
As for `O=C1/C(=C/c2ccc(Cl)c(Cl)c2)CN(C(=O)C(Cl)Cl)C/C1=C\c1ccc(Cl)c(Cl)c1`, the GI50 is 178 nM in the assay with COLO 205 colon; 190 nM in the assay on HOP-92 NSCLC; 206 nM in the assay on M14 melanoma; 37 nM in the assay on MCF7 breast; 237 nM in the assay with MDA-MB-231 breast; 73.7 nM with PC-3 prostate. Also, the GI50 in the assay on SK-OV-3 ovarian was 558 nM; with SN12C renal it was 139 nM; with SNB-75 CNS, 174 nM; in the assay with U251 CNS, 37.1 nM. The TGI is 0.638 µM with COLO 205 colon; 0.541 µM with HOP-92 NSCLC; 0.587 µM in the assay on M14 melanoma; 1.37 µM in the assay with MCF7 breast; 1.16 µM in the assay with MDA-MB-231 breast; 0.712 µM with PC-3 prostate. Also, the TGI in the assay on SK-OV-3 ovarian came out at 1.82 µM; in the assay with SN12C renal it was 0.461 µM; with SNB-75 CNS, 0.484 µM; in the assay on U251 CNS it was 0.153 µM.
For `CC(C)=CCc1cc2c(cc1O)C1=C(C(=O)C3=C(C1=O)S(=O)(=O)CCN3)C(C=C(C)C)O2` (stereo not given), the GI50 was 640 nM with COLO 205 colon; 3310 nM in the assay with HOP-92 NSCLC; 350 nM with M14 melanoma; 354 nM with MCF7 breast; 374 nM in the assay with MDA-MB-231 breast; 1600 nM in the assay with PC-3 prostate. In addition, the GI50 in the assay with SK-OV-3 ovarian was 2980 nM; in the assay on SN12C renal it was 294 nM; in the assay on SNB-75 CNS, 1390 nM; in the assay on U251 CNS, 1240 nM. The TGI with COLO 205 colon worked out at 2.41 µM; with HOP-92 NSCLC, 7.61 µM; in the assay on M14 melanoma, 1.2 µM; with MCF7 breast, 1.31 µM; with MDA-MB-231 breast, 1.61 µM; in the assay with PC-3 prostate it was 12.8 µM. Moreover, the TGI in the assay with SK-OV-3 ovarian came out at 5.54 µM; with SN12C renal, 0.651 µM; in the assay on SNB-75 CNS, 3.72 µM; in the assay on U251 CNS, 3.74 µM.
Take `COC(=O)C(CO)NC(=O)C(CSC(c1ccccc1)(c1ccccc1)c1ccccc1)NC(=O)OCc1ccccc1` (stereo not given) (Cbz-Cys(Trt)-Ser-OMe; configuration not given here): the TGI in the assay on COLO 205 colon is 32.4 µM; in the assay with HOP-92 NSCLC, 29.8 µM; with M14 melanoma, 44 µM; in the assay on MCF7 breast it was > 59.1 µM; in the assay with MDA-MB-231 breast, 27.8 µM; in the assay with PC-3 prostate, 27.4 µM. Moreover, the TGI with SK-OV-3 ovarian was > 90.1 µM; in the assay with SN12C renal it was 27.3 µM; in the assay on SNB-75 CNS it was 33.7 µM; in the assay with U251 CNS it was 33.3 µM.
As for `CC(=O)Nc1ccc(C(=O)CCl)cc1`, the GI50 in the assay with COLO 205 colon is 1970 nM; in the assay on HOP-92 NSCLC, 2120 nM; with M14 melanoma, 2560 nM; with MCF7 breast, 1660 nM; in the assay with MDA-MB-231 breast, 4020 nM; with PC-3 prostate, 10000 nM. The GI50 with SK-OV-3 ovarian was 15100 nM; in the assay with SN12C renal, 5350 nM; in the assay with SNB-75 CNS it was 3460 nM; with U251 CNS, 12400 nM. The TGI in the assay with COLO 205 colon stood at 3.93 µM; in the assay on HOP-92 NSCLC, 4.95 µM; with M14 melanoma, 7.38 µM; in the assay with MCF7 breast it was 6.54 µM; with MDA-MB-231 breast, 14.8 µM; in the assay with PC-3 prostate, 22.3 µM. The TGI in the assay with SK-OV-3 ovarian turned out to be 28.3 µM; in the assay with SN12C renal, 19.2 µM; with SNB-75 CNS it was 16 µM; in the assay on U251 CNS, 25.1 µM.
Take `Oc1ccc(Cl)cc1C(c1cc(Cl)ccc1O)C(Cl)(Cl)Cl`: the GI50 in the assay on COLO 205 colon is 1900 nM; in the assay with HOP-92 NSCLC, 2280 nM; in the assay on M14 melanoma, 1780 nM; in the assay with MCF7 breast, 2420 nM; in the assay with MDA-MB-231 breast, 1710 nM; in the assay on PC-3 prostate, 1790 nM. Also, the GI50 in the assay with SK-OV-3 ovarian is 2940 nM; in the assay with SN12C renal, 1670 nM; in the assay on SNB-75 CNS, 2170 nM; in the assay with U251 CNS, 1710 nM. The TGI came to 3.82 µM in the assay with COLO 205 colon; 5.44 µM in the assay with HOP-92 NSCLC; 3.62 µM in the assay with M14 melanoma; 6.65 µM in the assay on MCF7 breast; 3.86 µM with MDA-MB-231 breast; 4.76 µM in the assay with PC-3 prostate. In addition, the TGI in the assay on SK-OV-3 ovarian stood at 9.76 µM; with SN12C renal, 3.28 µM; in the assay with SNB-75 CNS, 9.57 µM; in the assay with U251 CNS, 3.45 µM.
As to `Clc1nccc2c(-c3csc(-c4c[nH]c5ccc(Br)cc45)n3)c[nH]c12`, the GI50 was 1800 nM with COLO 205 colon; 2430 nM in the assay with HOP-92 NSCLC; 2220 nM in the assay with M14 melanoma; 2200 nM with MCF7 breast; 1680 nM in the assay with MDA-MB-231 breast; 3860 nM in the assay on PC-3 prostate. Besides, the GI50 with SK-OV-3 ovarian is 2780 nM; with SN12C renal it was 3350 nM; in the assay with SNB-75 CNS it was 2370 nM; in the assay with U251 CNS it was 2050 nM. Besides, the TGI amounted to 5.61 µM with COLO 205 colon; 6.81 µM with HOP-92 NSCLC; 5.62 µM in the assay on M14 melanoma; 11.6 µM in the assay with MCF7 breast; 4.62 µM with MDA-MB-231 breast; 14 µM in the assay on PC-3 prostate. Moreover, the TGI in the assay with SK-OV-3 ovarian was 8.27 µM; in the assay with SN12C renal, 14.4 µM; in the assay with SNB-75 CNS, 10.9 µM; with U251 CNS it was 5.02 µM.
Consider `CO[C@H]1C[C@@H]2CC[C@@H](C)[C@@](O)(O2)C(=O)C(=O)N2CCCC[C@H]2C(=O)O[C@H]([C@H](C)C[C@@H]2CC[C@@H](OC(=O)C(C)(CO)CO)[C@H](OC)C2)CC(=O)[C@H](C)/C=C(\C)[C@@H](O)[C@@H](OC)C(=O)[C@H](C)C[C@H](C)\C=C/C=C/C=C/1C`, for which the GI50 in the assay on COLO 205 colon was > 5940 nM; in the assay with HOP-92 NSCLC, 1.41 nM; with M14 melanoma, > 6060 nM; in the assay with MCF7 breast it was 4.22 nM; in the assay with MDA-MB-231 breast, > 4320 nM; in the assay with PC-3 prostate, 1.44 nM. For the same molecule, the GI50 with SK-OV-3 ovarian is 1.39 nM; in the assay with SN12C renal it was > 10000 nM; with SNB-75 CNS, < 1 nM. In addition, the TGI in the assay on COLO 205 colon was > 10 µM; in the assay on HOP-92 NSCLC it was > 8.98 µM; with M14 melanoma it was > 10 µM; in the assay on MCF7 breast it was > 10 µM; in the assay on MDA-MB-231 breast, > 10 µM; with PC-3 prostate it was > 10 µM. The TGI in the assay with SK-OV-3 ovarian, with SN12C renal, with SNB-75 CNS and in the assay on U251 CNS was > 10 µM throughout.
Turning to `C=C1C[C@H]2C=Nc3cc(OCCCOc4cc5c(cc4OC)C(=O)N4CC(=C)C[C@H]4C=N5)c(OC)cc3C(=O)N2C1`, the GI50 in the assay with COLO 205 colon is 5.46 nM; in the assay on M14 melanoma, 8.58 nM and < 13 nM; in the assay with MDA-MB-231 breast, 18.5 nM; in the assay with PC-3 prostate it was 21.2 nM and < 13.8 nM; with SK-OV-3 ovarian it was < 14.7 nM; in the assay with SN12C renal, 1.51 nM. Besides, the GI50 with SNB-75 CNS is 1.78 nM. Also, the TGI with COLO 205 colon came out at 0.0343 µM; in the assay on HOP-92 NSCLC, 0.151 µM; with M14 melanoma, 0.0846 µM; in the assay on MCF7 breast, 41.3 µM; in the assay with MDA-MB-231 breast, 0.0452 µM; with PC-3 prostate it was 3.13 µM. Moreover, the TGI in the assay with SK-OV-3 ovarian was 33.1 µM; in the assay on SNB-75 CNS it was 0.0145 µM and < 0.0155 µM; with U251 CNS, 3.3 µM.

For the origin of these results see PubChem BioAssay (NCI).
